ChEMBL document CHEMBL1147963, “Design, synthesis, and antitumor activity of bile acid-polyamine-nucleoside conjugates” (Bioorg Med Chem Lett, 2007)

Assays:
Assay type in all cases: functional, cell-based
786-0 = experiment: Cytotoxicity against human 7860 cells after 48 hrs by MTT assay
HeLa [1] = experiment: Cytotoxicity against human HeLa cells at 100 uM after 48 hrs by MTT assay
HeLa [2] = experiment: Cytotoxicity against human HeLa cells at 125 uM after 48 hrs by MTT assay

SMILES	IC50 (786-0; Homo sapiens, 786-0, 48 h) [µM]	IC50 (HeLa [1]) [µM]	IC50 (786-0; 786-0) [µM]	IC50 (HeLa [2]) [µM]
CCCCCCCCCCCCCCCCCCO[PH](=O)OC[C@H]1O[C@@H](n2cc(C)c(=O)[nH]c2=O)C[C@@H]1N=[N+]=[N-] (stereo not given in full)	86	> 100		
Cc1cn([C@H]2C[C@H](N=[N+]=[N-])[C@@H](COP(=O)(NCCNCCNC(=O)CCC(C)[C@H]3CC[C@H]4[C@@H]5[C@H](O)C[C@@H]6C[C@H](O)CC[C@]6(C)[C@H]5C[C@H](O)[C@]34C)OC[C@H]3O[C@@H](n4cc(C)c(=O)[nH]c4=O)C[C@@H]3N=[N+]=[N-])O2)c(=O)[nH]c1=O (stereo not given in full)	> 100	> 100		
CCCCCCCCCCCCCCCCCCOP(=O)(NCCNCCNC(=O)CCC(C)[C@H]1CC[C@H]2[C@@H]3CC[C@@H]4C[C@H](O)CC[C@]4(C)[C@H]3C[C@H](O)[C@]12C)OC[C@H]1O[C@@H](n2cc(C)c(=O)[nH]c2=O)C[C@@H]1N=[N+]=[N-] (stereo not given in full)	58	> 100		
Cc1cn([C@H]2C[C@H](N=[N+]=[N-])[C@@H](COP(=O)(NCCNCCNC(=O)CCC(C)[C@H]3CC[C@H]4[C@@H]5C(=O)C[C@@H]6CC(=O)CC[C@]6(C)[C@H]5CC(=O)[C@]34C)OC[C@H]3O[C@@H](n4cc(C)c(=O)[nH]c4=O)C[C@@H]3N=[N+]=[N-])O2)c(=O)[nH]c1=O (stereo not given in full)	> 100	> 100		
Cc1cn([C@H]2C[C@H](N=[N+]=[N-])[C@@H](COP(=O)(NCCCNCCCNC(=O)CCC(C)[C@H]3CC[C@H]4[C@@H]5CC[C@@H]6C[C@H](O)CC[C@]6(C)[C@H]5C[C@H](O)[C@]34C)OC[C@H]3O[C@@H](n4cc(C)c(=O)[nH]c4=O)C[C@@H]3N=[N+]=[N-])O2)c(=O)[nH]c1=O (stereo not given in full)	> 100	> 100		
CCCCCCCCCCCCCCCCCCOP(=O)(NCCCNCCCNC(=O)CCC(C)[C@H]1CC[C@H]2[C@@H]3[C@H](O)C[C@@H]4C[C@H](O)CC[C@]4(C)[C@H]3C[C@H](O)[C@]12C)OC[C@H]1O[C@@H](n2cc(C)c(=O)[nH]c2=O)C[C@@H]1N=[N+]=[N-] (stereo not given in full)	7.2	94		
CCCCCCCCCCCCCCCCCCOP(=O)(NCCCNCCCNC(=O)CCC(C)[C@H]1CC[C@H]2[C@@H]3C(=O)C[C@@H]4CC(=O)CC[C@]4(C)[C@H]3CC(=O)[C@]12C)OC[C@H]1O[C@@H](n2cc(C)c(=O)[nH]c2=O)C[C@@H]1N=[N+]=[N-] (stereo not given in full)	7.1	91		
CCCCCCCCCCCCCCCCCCOP(=O)(NCCNCCNC(=O)CCC(C)[C@H]1CC[C@H]2[C@@H]3C(=O)C[C@@H]4CC(=O)CC[C@]4(C)[C@H]3CC(=O)[C@]12C)OC[C@H]1O[C@@H](n2cc(C)c(=O)[nH]c2=O)C[C@@H]1N=[N+]=[N-] (stereo not given in full)	42	> 100		
Cc1cn([C@H]2C[C@H](N=[N+]=[N-])[C@@H](COP(=O)(NCCCNCCCNC(=O)CCC(C)[C@H]3CC[C@H]4[C@@H]5C(=O)C[C@@H]6CC(=O)CC[C@]6(C)[C@H]5CC(=O)[C@]34C)OC[C@H]3O[C@@H](n4cc(C)c(=O)[nH]c4=O)C[C@@H]3N=[N+]=[N-])O2)c(=O)[nH]c1=O (stereo not given in full)	> 100	> 100		
Cc1cn([C@H]2C[C@H](N=[N+]=[N-])[C@@H](COP(=O)(NCCNCCNC(=O)CCC(C)[C@H]3CC[C@H]4[C@@H]5CC[C@@H]6C[C@H](O)CC[C@]6(C)[C@H]5C[C@H](O)[C@]34C)OC[C@H]3O[C@@H](n4cc(C)c(=O)[nH]c4=O)C[C@@H]3N=[N+]=[N-])O2)c(=O)[nH]c1=O (stereo not given in full)	> 100	> 100		
CCCCCCCCCCCCCCCCCCOP(=O)(NCCCNCCCNC(=O)CCC(C)[C@H]1CC[C@H]2[C@@H]3CC[C@@H]4C[C@H](O)CC[C@]4(C)[C@H]3C[C@H](O)[C@]12C)OC[C@H]1O[C@@H](n2cc(C)c(=O)[nH]c2=O)C[C@@H]1N=[N+]=[N-] (stereo not given in full)	6.8	89		
CCCCCCCCCCCCCCCCCCOP(=O)(NCCNCCNC(=O)CCC(C)[C@H]1CC[C@H]2[C@@H]3[C@H](O)C[C@@H]4C[C@H](O)CC[C@]4(C)[C@H]3C[C@H](O)[C@]12C)OC[C@H]1O[C@@H](n2cc(C)c(=O)[nH]c2=O)C[C@@H]1N=[N+]=[N-] (stereo in doubt; 2a)			59	
Cc1cn([C@H]2C[C@H](N=[N+]=[N-])[C@@H](CO)O2)c(=O)[nH]c1=O [ZIDOVUDINE]		> 100		> 100
